Experimental data taken from patent US8778437B2, “Taste improving substances” (Givaudan Nederland Services B.V., priority 2004, dated 2014).

Tested on: panel
Assay: Panel comparison of carbonated lemonade with and without test substance (Example 3)
Assay type: in vivo
Settings: 0.03 wt.% of spray dried sample of Example 2 in carbonated lemonade (10% sugar, 1200 ppm citric acid, 100 ppm ascorbic acid, pH 3)
Protocol: A basic carbonated lemonade containing 10% sugar, 1200 ppm citric acid and 100 ppm ascorbic acid, was prepared. The pH of the lemonade was 3. This was used as the control. To the test lemonade the spray dried sample described in Example 2 was added in an amount of 0.03 wt. %. The two lemonades were compared by a panel.

CC(O)C(=O)NCCOP(=O)(O)O (stereo not shown) [N-lactoyl-ethanolaminie-phosphate, N-Lactoyl ethanolamine phosphate]
taste description of lemonade compared with control: more acidic, more natural, more juicy, more complex
